Data as given in PubChem BioAssay AID1996.
In brackets after ≈: the same amount, converted by molar mass.

Conditions: buffer; pH 7.4; 200.0 µM

| Structure (SMILES) | solubility kinetic [µg/mL] |
| --- | --- |
| COC(=O)c1ccc(SCc2ccccc2)nc1 | 3.1 (≈ 12 µM) |
| COc1ccc(C(=O)OCC(=O)NCCN2C(=O)CSC2=O)cc1[N+](=O)[O-] | > 59.6 |
| CCCCn1c(N)c(N(CC)C(=O)c2cccc(C)c2)c(=O)[nH]c1=O | > 51.7 |
| COc1cccc(C(=O)NCCCn2ccnc2)c1 | > 38.9 |
| CC1CCCC(C)N1C(=O)COC(=O)c1nn(C)c(=O)c2ccccc12 (stereo not given) | > 53.6 |
| CCC(C)[C@H](NC(=O)NCCC1=CCCCC1)C(=O)OC (stereo not given in full) | > 44.5 |
| CCCNC(=O)CNC(=S)N(Cc1ccccc1F)C1CCCCC1 | 42.3 (≈ 116 µM) |
| C=CCOC(=O)C1=C(C)NC(=O)NC1c1ccc(O)cc1 (stereo not given) | > 43.2 |
| CC(C)OP(=O)(OC(C)C)C(C)NC(=O)Cc1ccccc1 (stereo not given) | 44.4 (≈ 136 µM) |
| COc1ccc(Br)cc1CN(C)C(=O)C1=CC=CN2CCS(=O)(=O)N=C12 | 43.1 (≈ 97.9 µM) |
| N#C/C(=C\N1CCOCC1)S(=O)(=O)c1ccc(Cl)cc1 | 45 (≈ 144 µM) |
| COc1ccc(NC(=O)COc2ccc3c(c2)CCC3)cc1 | 2.7 (≈ 9.08 µM) |
| CC(=O)N/C(=C\c1ccccc1)C(=O)OCC(=O)N(C)C1CCS(=O)(=O)C1 (stereo not given) | > 59.2 |
| CCOC(=O)c1ccccc1NC(=O)COC(=O)C1CCCC1 | 3.1 (≈ 9.71 µM) |
| Cc1ccccc1NC(=O)COc1ccccc1C | 2.1 (≈ 8.23 µM) |
| O=C(OCC(=O)N1CCOCC1)c1cccc(F)c1 | > 40.1 |
| O=C(COC(=O)C1CC(=O)N(Cc2ccco2)C1)Nc1ccc(F)cc1F (stereo not given) | > 56.7 |
| COC(=O)Cn1cc(C(=O)C(C)(C)C)c2ccccc21 | 37.1 (≈ 136 µM) |
| O=S(=O)(c1cccc(F)c1)N1CCN(c2nc(-c3cccnc3)nc3ccccc23)CC1 | 1.2 (≈ 2.67 µM) |
| COc1ccc(NC(=O)C(=O)NCCCn2ccnc2)cc1 | 43.1 (≈ 143 µM) |

| Structure (SMILES) | solubility kinetic [µg/mL] |
| --- | --- |
| CN(C)C(CNS(=O)(=O)c1ccc(Cl)cc1F)c1ccco1.Cl (stereo not given) | > 57.5 |
| O=C(CNS(=O)(=O)c1ccc(Cl)c(C(F)(F)F)c1)NC1CCCCC1 | 12.6 (≈ 31.6 µM) |
| COc1ccc(NC(=O)c2cc3ccccc3cc2OC)cc1 | 5.9 (≈ 19.2 µM) |
| COc1ccc(CCC(=O)OCC(=O)Nc2ccccc2)cc1 | > 47 |
| Cl.O=c1cc(CN2CCNCC2)nc2sccn12 | 44 |
| CCc1nc(SCC(=O)O)c2c3c(sc2n1)COC(C)(C)C3 | > 50.8 |
| CN1CCN(C(=O)c2ccc(Oc3ccc([N+](=O)[O-])cc3)cc2)CC1 | > 51.2 |
| CC1C(=O)C(C)C(c2ccc(O)cc2)NC1c1ccc(O)cc1 (stereo not given) | 45.4 (≈ 146 µM) |
| O=C(NCc1ccccc1)c1nc2ccccc2s1 | 17.4 (≈ 64.8 µM) |
| Cc1ccc(C(=O)OCC(=O)NC2CCCC2)cc1C | 15.8 (≈ 57.4 µM) |
| CC1=CC(C)(C)NC(=S)N1c1cc(C)cc(C)c1 | 8.7 (≈ 33.4 µM) |
| C=CCOc1ccc(/C=C/C(=O)OCC(=O)NC2CCCCCCC2)cc1 | < 0.8 |
| CC(=O)Nc1ccc2nc(NC(=O)c3ccc([N+](=O)[O-])o3)sc2c1 | 4 (≈ 11.5 µM) |
| O=C(COC(=O)CCC(=O)c1cccs1)NC1CC1 | > 42.2 |
| CSCCCNC(=S)Nc1ccc(N2CCOCC2)cc1 | > 48.8 |
| O=C(CSc1nnc(-c2ccncc2)o1)Nc1cc(Cl)ccc1C(=O)O | > 58.6 |
| O=C(Nc1cc(Cl)ccc1Cl)C1CC(=O)N(c2ccccc2)C1 (stereo not given) | 1.7 (≈ 4.87 µM) |
| COc1cccc(NC(=O)CC2Oc3ccccc3NC2=O)c1 (stereo not given) | 6.7 (≈ 21.5 µM) |
| NS(=O)(=O)c1ccc(CNC(=O)c2ccccn2)cc1 | > 43.7 |
| Cc1ccc(NC2SC(=O)N(Cc3cccc(C(=O)O)c3)C2=O)c(C)c1 (stereo not given) | 53.1 (≈ 143 µM) |

| Structure (SMILES) | solubility kinetic [µg/mL] |
| --- | --- |
| CC(C)(C)c1ccc(/C=C(\C#N)C(=O)NCCN2CCOCC2)cc1 | 30.9 (≈ 90.5 µM) |
| CCOc1ccccc1C(=O)NC1CCNCC1 | > 37.2 |
| CC(C(=O)c1ccccc1)[n+]1cccc(C(N)=O)c1.[Br-] (stereo not given) | > 50.3 |
| CC12CC(O)C3c4ccc(O)cc4CCC3C1CC/C2=N\O (stereo not given) | > 45.2 |
| O=C(NCCNC(=O)c1ccccc1F)c1ccccn1 | > 43.1 |
| CC1CCN(C(=O)CSc2nc(C3CC3)nc3ccccc23)CC1 | > 51.2 |
| CCN(CC)C(=O)c1ccc(NC(=O)c2cccc(C(F)(F)F)c2)cc1 | 2.8 (≈ 7.68 µM) |
| COc1ccc(CNC(=O)CN2C(=O)c3ccccc3C2=O)cc1 | 4.4 (≈ 13.6 µM) |
| COc1ccccc1CNC(=O)CNC(=O)c1sc2ccccc2c1Cl | 7.6 (≈ 19.5 µM) |
| O=C(Cc1c(F)cccc1Cl)N(Cc1ccccc1)c1ccccn1 | 37.3 (≈ 105 µM) |
| O=[N+]([O-])c1cccc(CSc2cccc[n+]2[O-])c1 | > 39.3 |
| CCc1ccc(OCC(=O)N2CC(C(N)=O)Oc3ccccc32)cc1 (stereo not given) | 45.1 (≈ 132 µM) |
| Cc1ccc(C)c(NC(=O)C(=O)NCCc2c[nH]c3ccccc23)c1 | 0.7 (≈ 2.09 µM) |
| O=C(O)CNC(=S)N(Cc1ccccc1)Cc1cccs1 | > 48.1 |
| O=C(Cc1ccc(Cl)cc1)Nc1ncccn1 | > 37.2 |
| O=C(NCc1ccc(F)cc1)C(Cc1ccccc1)n1cccc1 (stereo not given) | 32.2 (≈ 99.9 µM) |
| O=C(N/N=C/c1ccccc1O)c1ccncc1 | > 36.2 |
| CCN1CCN(C(=O)/C=C/c2ccc(C(C)C)cc2)CC1 | > 43 |
| CCCCNC(=O)COC(=O)c1ccc(N(C)C)cc1 | > 41.8 |
| CN(CC(=O)Nc1ccc(F)cc1)CC(=O)N1CCCCCC1 | 44.8 (≈ 139 µM) |
